Measurements as given in publication PMC6272301, “Inhibition of Oxidative Stress and Skin Aging-Related Enzymes by Prenylated Chalcones and Other Flavonoids from Helichrysum teretifolium” (Molecules, 2015).
Where “and” joins values, the source holds several entries; their conditions need not be identical. Equal entries are not always repeated.

Assays:
[1] = Automated ORAC assay, peroxyl radical (AAPH; ORAC ROO.); conditions: peroxyl radical from AAPH, 37 °C; Trolox equivalents
Description: (§1) 3.4.2. Automated Oxygen Radicals Absorbance Capacity (ORAC) Assay
(§2) ORAC was measured according to the method described by Prior [30], with some modifications. […] The copper-initiated prooxidant activity was calculated using [(AreaBlank − AreaSample)/AreaBlank] × 100 and expressed as prooxidant units; one unit equals the prooxidant activity that reduces the area under the fluorescein decay curve by 1% in the ORAC assay.

[2] = Automated ORAC assay, hydroxyl radical (H2O2-Cu2+; ORAC OH.); conditions: hydroxyl radical from H2O2 0.3% - Cu2+ 18 µM, 37 °C; Trolox equivalents
Description: as §1, §2

[3] = Copper-initiated prooxidant activity in the ORAC assay (Cu2+ without H2O2); conditions: Cu2+ (CuSO4) 18 µM without H2O2, 37 °C; prooxidant (arbitrary) units
Description: as §1, §2

[4] = Ferric-ion reducing antioxidant power assay (FRAP); conditions: ascorbic acid equivalents; absorbance 593 nm
Description: 3.4.1. Ferric-Ion Reducing Antioxidant Power Assay (FRAP)
Working FRAP reagent was prepared in accordance to the methods described previously. […] L-Ascorbic acid was used as a standard and the results were expressed as μM ascorbic acid equivalents per […] dry weight (μM AAE/g DW) of the test samples.

[5] = Trolox equivalent absorbance capacity (TEAC) assay; conditions: Trolox equivalents; absorbance 734 nm, 25 °C
Description: 3.4.3. Trolox Equivalent Absorbance Capacity (TEAC) Assay
The total antioxidant activity of test samples were measured using previously described methods.

[6] = test system: Fe (II)-induced microsomal lipid peroxidation (rat liver microsomes); assay: Inhibition of Fe (II)-induced microsomal lipid peroxidation; assay type: biochemical; conditions: TBARS, purified compounds screened at 26.750 μg/mL, extract (HT) at 100 μg/mL
Description: 3.4.4. Inhibition of Fe (II)-Induced Microsomal Lipid Peroxidation Assay
A modified assay described by Snijman et al. with little modifications.

[7] = target: T1, elastase (from porcine pancreas) (Sus scrofa, UniProt P00772); assay: Elastase inhibition assay; assay type: biochemical; conditions: substrate SANA, 100 μg/mL optimum concentration; for IC50: read-out: Inhibitory Activitis (IC50) Elastase (converted)
T1 construct: purchased Sigma-Aldrich, Inc. (St. Louis, MO, USA); host or cells: porcine pancreas
T1 sequence (P00772 27-266): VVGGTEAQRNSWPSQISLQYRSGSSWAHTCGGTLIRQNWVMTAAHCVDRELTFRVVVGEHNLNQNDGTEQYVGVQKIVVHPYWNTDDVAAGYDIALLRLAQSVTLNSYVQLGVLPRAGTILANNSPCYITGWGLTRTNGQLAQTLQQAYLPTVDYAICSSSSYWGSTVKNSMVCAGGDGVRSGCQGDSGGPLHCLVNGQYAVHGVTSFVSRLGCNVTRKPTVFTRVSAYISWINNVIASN
Description: (§3) Organic solvents, methanol, acetonitrile (HPLC grade), ethanol, ethyl acetate, dichloromethane and hexane were supplied by Merck (Cape Town, South Africa). TLC was conducted on normal-phase (Merck) Silica gel 60 PF254 pre-coated aluminum plates. Column chromatography was performed using silica gel 60 H (0.040–0.063 mm particle size, Merck) and Sephadex LH-20 (Sigma-Aldrich, Cape Town, South Africa). NMR spectra were recorded on an Avance 400 MHz NMR spectrometer (Bruker, Rheinstetten, Germany) in deuterated chloroform and acetone, using the solvent signals as internal reference. HRMS analysis was conducted on an Ultimate 3000 LC (Dionex Sunnyvale, CA, USA) coupled to a Bruker QTOF with electrospray ionization (ESI) interface working in the positive ion mode.
3.4.6. Elastase Inhibition Assay
Inhibition of elastase by the test samples was assayed using N-succyl-(Ala)3-nitroanilide (SANA) as the substrate, monitoring the release of p-nitroanilide by the method described by Chompo et al. with little adjustment. The inhibitory activity determined the intensity of colour released during cleavage of SANA by the action of elastase. Briefly, 1 mM SANA was prepared in 0.1 M Tris-HCl buffer pH 8.0 and 200 µL of this solution was added to the 20 µL of sample solution in a 96-Well plate. The mixtures were vortexed and preincubated for 10 min at 25 °C and then 20 µL of elastase from porcine pancrease (0.03 units/mL) was added. The mixtures were further incubated for 10 min and the absorbance was measured at 410 nm. Methanol was used as control, while oleanolic acid used as a positive control.

[8] = target: tyrosinase (from mushroom) (Agaricus bisporus, UniProt C7FF04); assay: Tyrosinase enzyme assay; assay type: biochemical; conditions: substrate L-Tyrosine; screened at effective concentration of 50 μg/mL
Sequence of tyrosinase (from mushroom) (C7FF04 1-392): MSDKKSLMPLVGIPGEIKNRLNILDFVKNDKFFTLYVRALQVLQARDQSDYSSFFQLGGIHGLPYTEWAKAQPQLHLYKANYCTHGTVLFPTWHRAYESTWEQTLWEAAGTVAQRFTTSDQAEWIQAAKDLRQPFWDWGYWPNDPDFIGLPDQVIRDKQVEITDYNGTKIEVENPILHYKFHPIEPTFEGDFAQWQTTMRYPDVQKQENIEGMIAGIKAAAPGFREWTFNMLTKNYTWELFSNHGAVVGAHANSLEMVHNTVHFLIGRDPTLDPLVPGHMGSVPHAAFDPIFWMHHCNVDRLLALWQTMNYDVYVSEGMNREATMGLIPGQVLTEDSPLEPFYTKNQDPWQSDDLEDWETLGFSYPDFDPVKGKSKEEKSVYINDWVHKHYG
Description: as §3
Samples were dissolved in DMSO to a stock solution of 1 mg/mL, and further dilutions were then done with 50 mM sodium phosphate buffer (pH 6.5) for all working solutions. […] Incubation commenced for 30 min at room temperature and the enzyme activity was determined by measuring the absorbance at 490 nm.

Row | Molecule | Automated Oxygen Radical Absorbance Capacity (ORAC μM TE/g) ROO. [1] | Automated Oxygen Radical Absorbance Capacity (ORAC μM TE/g) OH. [2] | Automated Oxygen Radical Absorbance Capacity (ORAC μM TE/g) Prooxidant [3] | FRAP [4] | TEAC [5] | Inhibitory Activitis (IC50) Lipid Peroxidation [6] | IC50 [7] | Inhibitory Activitis (IC50) Tyrosinase [8] | Inhibitory Activitis (IC50) Elastase [7]
1 | CC(C)=CCc1c(O)cc2c(c1O)C(=O)C[C@@H](c1ccccc1)O2 [Compound 4, isoglabranin] | 1.063 ± 33.50 μM/g × 10^3 | 2.918 ± 4.13 μM/g × 10^6 | 3.947 ± 0.29 µM/g | 7.052 ± 3.76 μM AAE/g | 43.17 ± 6.26 μM TE/g | >26.750 µg/mL | > 308 µM | – | –
2 | CC(C)=CCc1c(O)cc(O)c2c1O[C@H](c1ccccc1)CC2=O [Compound 5, glabranin] | 0.856 ± 17.35 μM/g × 10^3 | 2.997 ± 0.36 μM/g × 10^6 | 2.971 ± 1.10 µM/g | 67.79 ± 14.27 μM AAE/g | 204.15 ± 2.04 μM TE/g | >26.750 µg/mL | > 308 µM | – | –
3 | CC(C)=CCc1c(O)cc(O)c(C(=O)/C=C/c2ccccc2)c1O [Compound 3, 2',4',6'-trihydroxy-3'-prenylchalcone] | 5.025 ± 6.16 μM/g × 10^3 | 3.771 ± 3.02 μM/g × 10^6 | 4.704 ± 0.27 µM/g | 817.94 ± 4.26 μM AAE/g | 4529.01 ± 2.44 μM TE/g | 21.276 µg/mL | > 308 µM | – | –
4 | O=C(O[C@@H]1Cc2c(O)cc(O)cc2O[C@@H]1c1cc(O)c(O)c(O)c1)c1cc(O)c(O)c(O)c1 [EGCG, epigallocatechin gallate, reference compound] | 14.970 ± 5.53 μM/g × 10^3 | 3.911 ± 4.65 μM/g × 10^6 | 6.483 ± 1.19 µM/g | 3326.45 ± 5.76 μM AAE/g | 11545.4 ± 17.28 μM TE/g | 0.929 µg/mL | – | – | –
5 | COc1cc2oc(-c3ccccc3)cc(=O)c2c(O)c1OC [Compound 10, mosloflavone] | 2.403 ± 2.50 μM/g × 10^3 | 2.909 ± 8.41 μM/g × 10^6 | 6.482 ± 1.55 µM/g | 544.60 ± 6.98 μM AAE/g | 699.66 ± 2.28 μM TE/g | 10.720 µg/mL | > 335 µM | – | –
6 | isoxanthohumol [Compound 2] | 3.113 ± 17.59 μM/g × 10^3 | 2.910 ± 6.00 μM/g × 10^6 | 3.601 ± 2.23 µM/g | 619.91 ± 1.97 μM AAE/g | 4170.66 ± 6.72 μM TE/g | >26.750 µg/mL | – | >50 µg/mL | >100 µg/mL
7 | CC(C)=CCOc1cc(O)c(C(=O)/C=C/c2ccccc2)c2c1C=CC(C)(C)O2 [Compound 1, 2'-hydroxy-5',6'-(2,2-dimethylpyrano)-4'-(O-prenyl)-chalcone] | 2.833 ± 3.88 μM/g × 10^3 | 2.998 ± 1.67 μM/g × 10^6 | 2.036 ± 2.98 µM/g | – | – | >26.750 µg/mL | > 256 µM | – | –
8 | O=c1c(O)c(-c2ccc(O)c(O)c2)oc2cc(O)cc(O)c12 [Compound 7, quercetin] | 17.836 ± 2.90 μM/g × 10^3 | 7.265 ± 0.71 μM/g × 10^6 | 4.361 ± 0.78 µM/g | 4816 ± 7.42 μM AAE/g and 4816.31 ± 7.42 μM AAE/g | 1361.70 ± 1.98 μM TE/g | 2.931 µg/mL | – | – | –
9 | COc1ccc(-c2oc3cc(O)cc(O)c3c(=O)c2O)cc1 [Compound 9, 4'-methoxykaempferol] | 10.491 ± 0.97 μM/g × 10^3 | 3.675 ± 1.40 μM/g × 10^6 | 3.790 ± 1.15 µM/g | 191.47 ± 1.39 μM AAE/g | 261.30 ± 4.02 μM TE/g | 10.520 µg/mL | > 333 µM | – | –
10 | COc1ccc(-c2oc3cc(O)cc(O)c3c(=O)c2O)cc1O [Compound 8, 4'-methoxyquercetin] | 12.545 ± 5.07 μM/g × 10^3 | 6.779 ± 3.40 μM/g × 10^6 | 8.963 ± 2.79 µM/g | 3584.17 ± 0.54 μM AAE/g | 1009.01 ± 1.98 μM TE/g | 6.449 µg/mL | 274 µM | – | –
